Key:
[1] = refractive index (other wavelength) (dimensionless); conditions: 101.32 kPa, Liquid, Wavelength=632.8 nm, Standard Abbe refractometry
[2] = refractive index (other wavelength) (dimensionless); xn = mol fraction of the nth substance listed; conditions: 293.6 K, 101.32 kPa, Liquid, Wavelength=632.8 nm

N#Cc1ccccc1 [benzonitrile]
[1]
Conditions | refractive index
283.93 K | 1.5294
285.77 K | 1.5285
287.73 K | 1.5276
289.74 K | 1.5266
291.66 K | 1.5256
293.65 K | 1.5247

N#Cc1ccccc1 [benzonitrile] + CCCCCCCCCCCC
[2]
Conditions | refractive index
x1 = 0.0994 | 1.4247
x1 = 0.195 | 1.4302
x1 = 0.2945 | 1.436
x1 = 0.3954 | 1.4434
x1 = 0.4923 | 1.4507
x1 = 0.5859 | 1.4608
x1 = 0.6782 | 1.4711
x1 = 0.768 | 1.4832
x1 = 0.8871 | 1.5022

CCCCCCCCCCCC [dodecane]
[1]
Conditions | refractive index
282.19 K | 1.4249
284.24 K | 1.424
286.06 K | 1.4233
288.08 K | 1.4225
289.91 K | 1.4217
291.91 K | 1.4207
293.94 K | 1.4199
